The record followed here is ChEMBL document CHEMBL5230155, “Recent contributions of quinolines to antimalarial and anticancer drug discovery research” (Eur J Med Chem, 2021).

One series has as its system K562. As to the kind of experiment: Cytotoxicity against human K562 cells. Type of series: functional, cell-based.
Series [1] addresses Phosphatidylinositol 4,5-bisphosphate 3-kinase catalytic subunit gamma isoform (Homo sapiens, UniProt P48736). As to the kind of experiment: Inhibition of PI3K gamma (unknown origin).
Another series relates to A549. The experiment in a line: Cytotoxicity against human A549 cells. Type of series: functional, cell-based.
For a further series, the system named is A2780. As to the kind of experiment: Induction of apoptosis in human A2780 cells assessed as accumulation at G2/M phase at 5 uM (reference value: 10%). Format: functional.
Series [2] concerns MCF7. As to the kind of experiment: Induction of apoptosis in human MCF7 cells assessed as accumulation at G2/M phase at 10 uM (reference value: 10%). Format: functional.
Series [3] has as its system Plasmodium berghei. The experiment in a line: Antiplasmodial activity against Plasmodium berghei infected in mouse assessed as increase in mean survival time at 100 mg/kg, po administered for 3 days (reference value: 7.6 day). Format: functional. The following applies: time 3 day.
Series [4] relates to Plasmodium falciparum. The experiment in a line: Antimalarial activity against CQ-sensitive Plasmodium falciparum D6. Format: functional, organism-based.
Series [5] deals with Plasmodium falciparum. The experiment in a line: Antimalarial activity against CQ-resistant Plasmodium falciparum W2. Type of series: functional, organism-based.
Series [6] has as its target Histone-lysine N-methyltransferase, H3 lysine-79 specific (Homo sapiens, UniProt Q8TEK3). As to the kind of experiment: Inhibition of DOT1L (unknown origin).
The next series concerns MV4-11. As to the kind of experiment: Antiproliferative activity against human MV4-11 cells. Type of series: functional, cell-based.
Another series has as its system Hemozoin. As to the kind of experiment: Inhibition of beta-hematin formation. The following applies: concentration not given here.
The subject of series [7] is Plasmodium berghei. As to the kind of experiment: Antimalarial activity against Plasmodium berghei ANKA infected in mouse assessed increase in survival time (reference value: 6.8 day). Type of series: functional.
The test system of the next series is MIA PaCa-2. As to the kind of experiment: Antiproliferative activity against human MIA PaCa-2 cells. Type of series: functional, cell-based.
A further series relates to NCI-H460. The experiment in a line: Antiproliferative activity against human NCI-H460 cells. Type of series: functional, cell-based.
The next series concerns PANC-1. The experiment in a line: Antiproliferative activity against human PANC-1 cells. Type of series: functional, cell-based.
Another series deals with A-375. As to the kind of experiment: Antiproliferative activity against human A-375 cells. Type of series: functional, cell-based.
A further series deals with HT-29. The experiment in a line: Antiproliferative activity against human HT-29 cells. Type of series: functional, cell-based.
Series [8] can be described thus: Antiproliferative activity against HUVEC cells. Type of series: toxicity, cell-based. As to conditions: human.
In a further series the test system is HCT-116. As to the kind of experiment: Cytotoxicity against human HCT-116 cells. Type of series: functional, cell-based.
For series [9], the system named is HepG2. As to the kind of experiment: Cytotoxicity against human HepG2 cells. Type of series: functional, cell-based. As to conditions: Homo sapiens, HepG2.
For series [10], the target named is Epidermal growth factor receptor (Homo sapiens, UniProt P00533). As to the kind of experiment: Inhibition of EGFR (unknown origin).
In the next series the test system is MDA-MB-231. As to the kind of experiment: Antiproliferative activity against human MDA-MB-231 cells. Type of series: functional, cell-based.
The test system of another series is KG-1a. As to the kind of experiment: Antiproliferative activity against human KG-1a cells. Format: functional, cell-based.
For series [11], the system named is HeLa. As to the kind of experiment: Antiproliferative activity against human HeLa cells. Type of series: functional, cell-based.
For the next series, the system named is Hep 3B2. The experiment in a line: Cytotoxicity against human Hep3B cells. Format: functional, cell-based.
The subject of a further series is G-361. The experiment in a line: Antiproliferative activity against human G-361 cells. Type of series: functional, cell-based.
The test system of series [12] is MCF7. As to the kind of experiment: Antiproliferative activity against human MCF7 cells. Format: functional, cell-based. As to conditions: mcf7.
Series [13] is described as follows: Cytotoxicity against human SLMT-1 cells.
A further series concerns RPMI-8226. As to the kind of experiment: Cytotoxicity against human RPMI-8226 cells. Type of series: functional, cell-based.
Series [14] relates to Plasmodium falciparum. As to the kind of experiment: Antimalarial activity against CQ-resistant Plasmodium falciparum Dd2. Type of series: functional, organism-based.
Series [15] deals with HeLa. As to the kind of experiment: Cytotoxicity against human HeLa cells at 2.5 uM. Type of series: functional.
A further series relates to SK-OV-3. As to the kind of experiment: Antiproliferative activity against human SK-OV-3 cells. Format: functional, cell-based.
The subject of another series is BEL-7404 tumor cell line. As to the kind of experiment: Antiproliferative activity against human BEL-7404 cells. Format: functional, cell-based.
In series [16] the test system is HepG2. As to the kind of experiment: Antitumor activity against human HepG2 cells xenografted in nude mouse assessed as reduction in tumor increment rate at 20 mg/kg/day (reference value: 100%). The arrangement: scale not given: the % may be the effect or the level left. Type of series: functional. Background: A xenograft is tissue or cells of one species grown in another, often human tumour cells in immunodeficient mice.

Series [17] concerns the target Serine/threonine-protein kinase mTOR (Homo sapiens, UniProt P42345). As to the kind of experiment: Inhibition of mTOR (unknown origin).
Series [18] addresses Dual specificity mitogen-activated protein kinase kinase 1 (Homo sapiens, UniProt Q02750). The experiment in a line: Inhibition of MEK1 (unknown origin).

Chain of Histone-lysine N-methyltransferase, H3 lysine-79 specific (Q8TEK3 whole entry): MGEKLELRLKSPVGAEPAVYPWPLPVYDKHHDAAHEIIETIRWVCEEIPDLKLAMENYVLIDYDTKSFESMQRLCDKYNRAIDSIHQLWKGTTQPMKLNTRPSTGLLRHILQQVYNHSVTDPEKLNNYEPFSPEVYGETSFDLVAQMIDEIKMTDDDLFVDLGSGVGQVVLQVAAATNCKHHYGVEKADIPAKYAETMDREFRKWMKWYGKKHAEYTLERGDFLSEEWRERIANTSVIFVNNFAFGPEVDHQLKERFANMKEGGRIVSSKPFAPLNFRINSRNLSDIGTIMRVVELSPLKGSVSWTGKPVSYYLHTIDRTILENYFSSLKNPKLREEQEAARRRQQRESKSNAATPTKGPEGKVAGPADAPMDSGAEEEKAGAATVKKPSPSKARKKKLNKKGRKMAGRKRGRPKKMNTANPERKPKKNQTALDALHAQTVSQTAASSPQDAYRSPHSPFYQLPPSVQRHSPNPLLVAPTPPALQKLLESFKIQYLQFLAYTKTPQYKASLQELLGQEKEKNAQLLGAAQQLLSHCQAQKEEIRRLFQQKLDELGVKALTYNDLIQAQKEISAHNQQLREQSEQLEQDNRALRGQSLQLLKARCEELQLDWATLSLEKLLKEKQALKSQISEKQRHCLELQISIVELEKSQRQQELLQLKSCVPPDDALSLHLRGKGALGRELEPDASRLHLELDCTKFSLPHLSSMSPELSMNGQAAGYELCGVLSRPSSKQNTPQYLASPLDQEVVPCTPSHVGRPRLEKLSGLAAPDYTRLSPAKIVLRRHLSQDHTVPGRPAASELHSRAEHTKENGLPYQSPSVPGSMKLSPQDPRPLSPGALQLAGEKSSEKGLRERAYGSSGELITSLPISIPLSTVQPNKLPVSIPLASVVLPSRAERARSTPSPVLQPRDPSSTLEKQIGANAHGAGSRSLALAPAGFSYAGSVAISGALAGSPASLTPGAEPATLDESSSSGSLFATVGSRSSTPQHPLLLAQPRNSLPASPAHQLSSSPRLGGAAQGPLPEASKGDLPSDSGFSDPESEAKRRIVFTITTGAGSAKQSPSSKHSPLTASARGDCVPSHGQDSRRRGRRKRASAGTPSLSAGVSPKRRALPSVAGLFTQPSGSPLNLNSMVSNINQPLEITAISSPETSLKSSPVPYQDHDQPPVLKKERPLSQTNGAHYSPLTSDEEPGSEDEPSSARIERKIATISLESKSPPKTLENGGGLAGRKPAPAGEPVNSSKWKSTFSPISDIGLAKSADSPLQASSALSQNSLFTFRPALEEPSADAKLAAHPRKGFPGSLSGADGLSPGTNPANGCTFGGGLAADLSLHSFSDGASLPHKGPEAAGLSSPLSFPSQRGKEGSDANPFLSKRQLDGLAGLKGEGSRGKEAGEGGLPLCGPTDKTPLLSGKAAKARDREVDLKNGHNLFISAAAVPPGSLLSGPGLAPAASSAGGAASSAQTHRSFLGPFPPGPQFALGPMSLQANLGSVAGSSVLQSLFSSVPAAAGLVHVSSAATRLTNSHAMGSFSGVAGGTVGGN
Chain of Dual specificity mitogen-activated protein kinase kinase 1 (Q02750 whole entry): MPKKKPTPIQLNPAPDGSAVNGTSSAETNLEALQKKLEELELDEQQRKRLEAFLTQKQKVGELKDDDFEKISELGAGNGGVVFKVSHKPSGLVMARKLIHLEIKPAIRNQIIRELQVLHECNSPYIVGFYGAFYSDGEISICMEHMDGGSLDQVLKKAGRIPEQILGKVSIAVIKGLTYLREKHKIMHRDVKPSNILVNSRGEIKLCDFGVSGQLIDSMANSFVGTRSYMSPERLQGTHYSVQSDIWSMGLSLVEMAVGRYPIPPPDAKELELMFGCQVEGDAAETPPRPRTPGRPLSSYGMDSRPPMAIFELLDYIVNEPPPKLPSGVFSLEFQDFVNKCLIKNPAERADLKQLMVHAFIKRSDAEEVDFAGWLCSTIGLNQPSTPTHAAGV
Chain of Epidermal growth factor receptor (P00533 whole entry): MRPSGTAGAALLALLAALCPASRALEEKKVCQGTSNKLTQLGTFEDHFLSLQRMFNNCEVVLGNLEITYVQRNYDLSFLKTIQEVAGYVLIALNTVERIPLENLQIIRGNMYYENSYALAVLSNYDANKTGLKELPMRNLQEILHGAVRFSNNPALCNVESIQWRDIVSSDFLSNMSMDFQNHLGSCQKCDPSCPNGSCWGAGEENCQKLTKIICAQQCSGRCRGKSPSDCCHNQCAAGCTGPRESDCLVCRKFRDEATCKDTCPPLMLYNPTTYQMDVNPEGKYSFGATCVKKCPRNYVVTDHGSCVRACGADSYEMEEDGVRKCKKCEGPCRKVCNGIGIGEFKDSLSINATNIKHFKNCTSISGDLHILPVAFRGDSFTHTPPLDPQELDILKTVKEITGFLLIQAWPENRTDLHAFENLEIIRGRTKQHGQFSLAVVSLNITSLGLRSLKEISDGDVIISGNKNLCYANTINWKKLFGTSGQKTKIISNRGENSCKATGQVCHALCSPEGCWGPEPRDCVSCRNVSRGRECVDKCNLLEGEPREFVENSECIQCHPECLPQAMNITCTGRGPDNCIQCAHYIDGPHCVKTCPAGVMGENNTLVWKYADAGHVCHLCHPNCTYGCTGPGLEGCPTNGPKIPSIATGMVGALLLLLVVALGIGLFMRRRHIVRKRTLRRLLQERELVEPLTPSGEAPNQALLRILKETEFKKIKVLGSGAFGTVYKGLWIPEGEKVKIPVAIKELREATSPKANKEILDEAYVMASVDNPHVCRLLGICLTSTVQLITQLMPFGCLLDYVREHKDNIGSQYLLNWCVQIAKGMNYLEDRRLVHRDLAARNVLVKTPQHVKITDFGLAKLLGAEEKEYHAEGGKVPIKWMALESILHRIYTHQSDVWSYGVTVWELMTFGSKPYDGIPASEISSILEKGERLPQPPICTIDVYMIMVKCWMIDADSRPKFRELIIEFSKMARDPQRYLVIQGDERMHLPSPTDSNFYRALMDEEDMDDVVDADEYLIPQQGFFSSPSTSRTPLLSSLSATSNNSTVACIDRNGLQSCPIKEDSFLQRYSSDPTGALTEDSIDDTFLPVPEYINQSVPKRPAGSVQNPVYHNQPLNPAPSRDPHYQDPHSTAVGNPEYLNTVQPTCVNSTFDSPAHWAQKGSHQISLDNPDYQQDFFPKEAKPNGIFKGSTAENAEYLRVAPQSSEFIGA
Chain of Phosphatidylinositol 4,5-bisphosphate 3-kinase catalytic subunit gamma isoform (P48736 whole entry, canonical isoform): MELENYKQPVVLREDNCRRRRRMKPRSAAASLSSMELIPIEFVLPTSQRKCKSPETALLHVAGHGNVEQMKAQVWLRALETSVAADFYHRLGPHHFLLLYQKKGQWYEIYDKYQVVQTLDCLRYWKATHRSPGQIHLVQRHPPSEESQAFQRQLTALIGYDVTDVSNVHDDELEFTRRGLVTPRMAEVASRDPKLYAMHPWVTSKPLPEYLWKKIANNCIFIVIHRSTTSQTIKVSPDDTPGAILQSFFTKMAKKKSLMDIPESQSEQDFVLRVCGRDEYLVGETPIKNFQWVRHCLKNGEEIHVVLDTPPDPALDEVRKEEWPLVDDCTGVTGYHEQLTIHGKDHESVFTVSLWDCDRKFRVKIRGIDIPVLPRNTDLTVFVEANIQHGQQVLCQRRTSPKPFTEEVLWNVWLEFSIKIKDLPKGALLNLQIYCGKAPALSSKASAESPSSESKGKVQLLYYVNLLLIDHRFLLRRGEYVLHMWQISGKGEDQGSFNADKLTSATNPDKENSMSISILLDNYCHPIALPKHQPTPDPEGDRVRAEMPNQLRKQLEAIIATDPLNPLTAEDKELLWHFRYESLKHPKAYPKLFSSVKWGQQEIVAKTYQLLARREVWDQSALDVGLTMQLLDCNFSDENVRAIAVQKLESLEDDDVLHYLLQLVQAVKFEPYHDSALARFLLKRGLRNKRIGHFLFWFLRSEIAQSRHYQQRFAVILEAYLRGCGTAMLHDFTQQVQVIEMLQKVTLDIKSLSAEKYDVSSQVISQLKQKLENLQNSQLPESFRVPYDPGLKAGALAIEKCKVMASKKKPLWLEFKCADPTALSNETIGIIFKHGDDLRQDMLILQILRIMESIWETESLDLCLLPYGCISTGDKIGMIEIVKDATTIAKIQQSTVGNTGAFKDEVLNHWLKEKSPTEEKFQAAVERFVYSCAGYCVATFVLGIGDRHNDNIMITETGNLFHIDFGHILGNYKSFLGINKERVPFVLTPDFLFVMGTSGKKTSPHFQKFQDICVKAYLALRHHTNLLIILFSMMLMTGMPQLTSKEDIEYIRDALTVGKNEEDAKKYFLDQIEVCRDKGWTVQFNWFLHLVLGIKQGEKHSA

As usually defined, the IC50 is the concentration that inhibits the measured activity by half. Take `Cc1ccc(-c2cc(C(=O)N/N=C(\C=C\c3ccc(Cl)cc3)c3ccc(N)cc3)c3ccccc3n2)cc1`: the IC50 with K562 stood at 1910 nM; in [1], 197 nM; with A549, 1910 nM.
As for `COc1cc(C(=O)/C=C/c2c(Cl)nc3c(C(=O)c4ccccc4)cccc3c2OC)cc(OC)c1OC`, the Activity with A2780 and with MCF7 [2] was 50% throughout.
For the compound `Cc1c(Cl)ccc2cc(/C=C/C(=O)c3ccc(Br)cc3)c(Cl)nc12`, the Time in the series on Plasmodium berghei [3] was 11.8 days. Moreover, the IC50 is under 50 nM with Plasmodium falciparum [4] and 38 nM in the series with Plasmodium falciparum [5].
As to `Cc1cc(Nc2ccc3nc(C)cc(N)c3c2)nc(NCCCCCCNC(=O)Nc2cc(C(F)(F)F)cc(C(F)(F)F)c2)n1`, the IC50 in series [6] came to 3550 nM; in the series on MV4-11, 1290 nM.
By inhibition is commonly meant the share of the control response that was lost under treatment. Compound `COC(=O)[C@@H](NC(=O)CSc1ccnc2cc(Cl)ccc12)C(C)C` gave an inhibition with Hemozoin of 61.1%. Further, the Time in the series on Plasmodium berghei [7] was 24.6 days.
With `COc1ccc(/C=C\c2cc(OC)c(OC)c(OC)c2)cc1O` [COMBRETASTATIN A4], the IC50 in the series on MIA PaCa-2 is 180 nM; in the series with NCI-H460, 180 nM; in the series with PANC-1, 180 nM; in the series on A-375, 180 nM; in the series on HT-29 it was 180 nM; in series [8], 1560 nM.
Consider `Cc1ccc2nc(/C=C/c3ccc(N(C)C)cc3)cc(-c3nnc(N)s3)c2c1`, for which the IC50 with HCT-116 came to 7.7 µg/mL; with HepG2 [9] it was 7.7 µg/mL; in [10], 1110 nM.
`COC(=O)[C@H](Cc1c[nH]c2ccccc12)NC(=O)CSc1ccnc2cc(Cl)ccc12` registered an inhibition with Hemozoin of 61.1%. The compound also showed a Time in the series on Plasmodium berghei [7] of 24.6 days.
Regarding `CCN(CCNC(=O)Nc1ccc(C(C)(C)C)cc1)c1nc(C)cc(Nc2ccc3nc(C)cc(N)c3c2)n1`, the figures for the 50% inhibitory concentration (IC50) (in [6]; in the series on MV4-11) were 5720 nM and 1620 nM, respectively.
Consider `Cc1ccc(Nc2nnc(-c3cc(-c4ccc(Br)cc4)nc4ccccc34)o2)cc1`, for which the figures for the IC50 in the series on MDA-MB-231, in the series on KG-1a and with HeLa [11] were 540 nM, 1210 nM and 50 nM, respectively.
Consider `COc1cccc2c1C(=O)c1c(O)c3c(c(O)c1C2=O)C[C@@](O)(C(=O)CO)C[C@@H]3O[C@H]1C[C@H](N)[C@H](O)[C@H](C)O1` [DOXORUBICIN], for which the 50% inhibitory concentration (IC50) in the series with Hep 3B2 was determined as 270 nM; with G-361, 2440 nM; with MCF7 [12], 1980 nM; in series [13], 270 nM; in the series on HCT-116, 410 nM; with RPMI-8226, 410 nM.
For `CN(C)CCNc1cc(/C=C/c2ccc(Br)cc2)nc2ccccc12`, in the series with Plasmodium falciparum [14], the IC50 was found to be 33 nM.
The compound `CCOc1ccc(Nc2cc(C)nc3ccc(Cl)cc23)cc1` gave an Activity in the series on HeLa [15] of 8%.
On to `Cc1cc2nc(-c3cc4ccccc4nc3Cl)[nH]c2cc1C`, for which the IC50 with NCI-H460, in the series on SK-OV-3, with HepG2 [9] and in the series on BEL-7404 tumor cell line was 7540 nM in each case. Besides, the Activity in the series on HepG2 [16] is 19.5%.
In general, GI50 refers to the concentration that inhibits growth by half. `Cc1c(Cc2cccc(N(C)S(=O)(=O)CCCNCCCC(=O)N3CCN(c4ccc(Nc5c(C(N)=O)cnc6ccc(-c7cnc8ccccc8c7)cc56)cc4C(F)(F)F)CC3)c2)c(=O)oc2cc(OC(=O)N(C)C)ccc12` returned a 50% growth inhibitory concentration (GI50) in the series on HCT-116 of 4660 nM. Moreover, the half-inhibitory concentration (IC50) in [17] was determined as 190 nM; in series [18] it was 980 nM.
`COc1cc2nc(N3CCCN(C)CC3)nc(NC3CCN(Cc4ccccc4)CC3)c2cc1OC` gave an Activity in the series on HeLa [15] of 63%.
